In test [1] the target is T1, PDE2A (Mus musculus, UniProt Q922S4).
T1 construct: targets used in the assays are full-length proteins (as opposed to simply the catalytic domain); expressed in transfected cells; host or cells: Schizosaccharomyces pombe, PDE gene integrated in place of cgs2 (strains LWP371, LWP364)
T1 sequence (Q922S4 1-939): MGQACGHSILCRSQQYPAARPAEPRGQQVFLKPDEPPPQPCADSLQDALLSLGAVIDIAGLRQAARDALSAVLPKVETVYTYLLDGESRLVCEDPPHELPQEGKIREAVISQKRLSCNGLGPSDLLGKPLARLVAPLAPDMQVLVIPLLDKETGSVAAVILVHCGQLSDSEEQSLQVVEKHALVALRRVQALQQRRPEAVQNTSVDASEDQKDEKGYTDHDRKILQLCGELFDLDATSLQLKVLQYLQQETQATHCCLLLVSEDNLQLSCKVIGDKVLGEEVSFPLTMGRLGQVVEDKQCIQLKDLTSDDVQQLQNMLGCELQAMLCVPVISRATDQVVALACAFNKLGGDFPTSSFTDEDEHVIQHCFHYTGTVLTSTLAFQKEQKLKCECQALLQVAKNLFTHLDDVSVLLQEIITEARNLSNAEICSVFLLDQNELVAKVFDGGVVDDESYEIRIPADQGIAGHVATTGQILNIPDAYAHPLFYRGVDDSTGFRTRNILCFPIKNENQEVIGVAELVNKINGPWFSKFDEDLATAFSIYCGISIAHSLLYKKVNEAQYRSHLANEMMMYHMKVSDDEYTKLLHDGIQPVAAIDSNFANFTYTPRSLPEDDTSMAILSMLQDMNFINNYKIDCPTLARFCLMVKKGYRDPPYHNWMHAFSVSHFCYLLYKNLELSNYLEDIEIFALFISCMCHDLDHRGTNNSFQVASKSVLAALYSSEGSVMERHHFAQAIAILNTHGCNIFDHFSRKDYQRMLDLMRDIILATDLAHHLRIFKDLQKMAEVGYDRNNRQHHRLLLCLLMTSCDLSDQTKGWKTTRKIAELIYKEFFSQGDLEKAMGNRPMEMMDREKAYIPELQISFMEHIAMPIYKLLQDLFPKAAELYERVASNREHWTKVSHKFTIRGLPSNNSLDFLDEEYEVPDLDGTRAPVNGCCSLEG
Kind of test: cAMP levels in yeast strain expressing PDE2A. The format is cell-based, murine. Conditions: 20 μM EHNA as compared to 200 μM. The protocol:
(§1) Values represent the average and SD of two or three independent experiments. […] The strains used are as in FIG. 5A, together with strain CHP1141 (PDE8A). Values represent the average and SD of two or three independent experiments.
(§2) β-galactosidase assays and characterization of 5FOA-sensitivity were carried out as previously described^10. cAMP assays were performed on exponential phase cells grown in EMM complete medium (3% glucose), using the Assay Designs cAMP EIA kit, according to manufacturer's instructions (Assay Designs, Ann arbor, Mich.).
(§3) Thus, PDE inhibition can be indirectly quantitated by measuring the effect of a compound on cAMP levels in target yeast strains.

In test [2] the target is T1, PDE2A. Kind of test: fbp1-lacZ β-galactosidase reporter assay, PDE2A strain. The test is classed as cell-based, murine. Conditions: strain LWP367 (PDE2A). As to the method:
as §2
(§4) The effect of known PDE inhibitors on the expression of the fbp1-lacZ fusion in murine PDE-expressing strains was tested. […] For Table 4 β-galactosidase activity was determined from 3 to 4 independent exponential phase cultures. The average±SD represents specific activity per milligram of soluble protein.
In general terms: In a reporter assay the amount or activity of a reporter protein is the signal.

For test [3], the system named is PDE2A, PDE4A, PDE4B, Cgs2. The experiment in a line: Parallel high throughput 5FOA growth screens of bioactive libraries. The format is cell-based, murine PDEs; yeast Cgs2. Conditions: 3,120 bioactive compounds, average 20 μM. As to the method: High throughput drug screens were carried out at the Broad Institute's Chemical Biology Program screening facility (Broad Institute, Cambridge, Mass.). Depending upon the strain, cultures were pregrown to exponential phase in EMM complete medium containing from 0.5 to 2.5 mM cAMP to repress fbp1-ura4 transcription. […] Starting cell concentrations ranged from 0.5×10^5 to 4×10^5 cells/ml depending on the screening strain. […] Other positive control dishes contained 5 mM cAMP in the 5FOA medium. Cultures were grown for 48 hours at 30° C., sealed in an airtight container with moist paper towels to prevent evaporation. Optical densities (OD600) of cultures were measured using a microplate reader. Bioinformatic analysis of the results to determine composite Z scores was performed as previously described^30, 31.

The target in test [4] is T2, PDE8A (Mus musculus, UniProt O88502).
T2 construct: targets used in the assays are full-length proteins (as opposed to simply the catalytic domain); expressed in transfected cells; host or cells: Schizosaccharomyces pombe, PDE gene integrated in place of cgs2 (strains CHP1141, DDP13)
T2 sequence (O88502 1-823): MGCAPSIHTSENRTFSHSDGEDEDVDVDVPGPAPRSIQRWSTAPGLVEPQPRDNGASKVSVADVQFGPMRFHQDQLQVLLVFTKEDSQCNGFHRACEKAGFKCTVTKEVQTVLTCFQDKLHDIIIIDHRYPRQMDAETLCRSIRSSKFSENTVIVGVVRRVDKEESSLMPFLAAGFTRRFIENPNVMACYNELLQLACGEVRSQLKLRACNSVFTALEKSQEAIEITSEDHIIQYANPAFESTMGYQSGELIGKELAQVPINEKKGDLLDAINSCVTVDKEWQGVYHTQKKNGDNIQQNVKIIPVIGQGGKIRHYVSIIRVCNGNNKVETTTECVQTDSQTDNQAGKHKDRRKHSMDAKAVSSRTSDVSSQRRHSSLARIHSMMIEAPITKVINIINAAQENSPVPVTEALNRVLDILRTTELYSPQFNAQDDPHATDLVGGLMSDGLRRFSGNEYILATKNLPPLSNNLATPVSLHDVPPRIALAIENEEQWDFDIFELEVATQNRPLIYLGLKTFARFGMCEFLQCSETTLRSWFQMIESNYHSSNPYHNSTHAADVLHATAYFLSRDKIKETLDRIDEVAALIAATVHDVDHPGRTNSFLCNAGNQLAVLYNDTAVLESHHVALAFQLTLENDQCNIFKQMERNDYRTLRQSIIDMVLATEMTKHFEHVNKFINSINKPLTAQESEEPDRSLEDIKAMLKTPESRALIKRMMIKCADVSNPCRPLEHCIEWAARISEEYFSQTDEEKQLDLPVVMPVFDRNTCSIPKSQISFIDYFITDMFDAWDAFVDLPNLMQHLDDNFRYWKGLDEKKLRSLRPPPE
Kind of test: cAMP levels in yeast strain expressing PDE8A. Conditions: rolipram treatment. The test is classed as cell-based, murine. The protocol: as §1, §2, §3
Background: Cyclic AMP is a second messenger, typically raised through Gs and lowered through Gi signalling.

The target of the next test is T3, Cgs2 (Schizosaccharomyces pombe, UniProt P36599).
T3 construct: expressing either the wild-type S. pombe Cgs2^+ PDE; endogenous in cells; host or cells: Schizosaccharomyces pombe strain CHP861
The experiment in a line: fbp1-lacZ β-galactosidase reporter assay, Cgs2 strain. The test is classed as cell-based, S. pombe. The conditions noted are these: strain CHP861 (Cgs2). As to the method:
as §2, §4

Test [5] concerns the target T2, PDE8A. Kind of test: fbp1-lacZ β-galactosidase reporter assay, PDE8A strain. The test is classed as cell-based, murine. The conditions noted are these: strain DDP13 (PDE8A). As to the method: as §2, §4
The test system of the next test is Cgs2-2. Kind of test: fbp1-lacZ β-galactosidase reporter assay, Cgs2-2 strain. The format is cell-based, S. pombe. The conditions noted are these: strain LWP98 (Cgs2-2). As to the method:
as §2, §4

Another test deals with U937 cells. Kind of test: TNF alpha release by LPS-treated U937 cells. The test is classed as cell-based.
The target in test [6] is T4, PDE7B (Homo sapiens, UniProt Q9NP56). The experiment in a line: in vitro enzyme assay, PDE7B catalytic domain from E. coli, hydrolysis of cAMP to AMP. The test is classed as biochemical. Further details: The PDE7B catalytic domain was expressed in and purified from E. coli; made in house; host or cells: E. coli. Conditions: AC200 = [Compound] that doubles PDE activity; read-out: IC50 (or AC200), PDE7B. As to the method: The PDE7B catalytic domain was expressed in and purified from E. coli and tested for activity in an in vitro enzyme assay, measuring the hydrolysis of cAMP to AMP. Four dilutions of the enzyme preparation were tested at various compound concentrations (X axis). The percent of cAMP hydrolyzed is plotted on the Y axis.
Target sequence in this assay (Q9NP56 97-420 limits assumed, species assumed): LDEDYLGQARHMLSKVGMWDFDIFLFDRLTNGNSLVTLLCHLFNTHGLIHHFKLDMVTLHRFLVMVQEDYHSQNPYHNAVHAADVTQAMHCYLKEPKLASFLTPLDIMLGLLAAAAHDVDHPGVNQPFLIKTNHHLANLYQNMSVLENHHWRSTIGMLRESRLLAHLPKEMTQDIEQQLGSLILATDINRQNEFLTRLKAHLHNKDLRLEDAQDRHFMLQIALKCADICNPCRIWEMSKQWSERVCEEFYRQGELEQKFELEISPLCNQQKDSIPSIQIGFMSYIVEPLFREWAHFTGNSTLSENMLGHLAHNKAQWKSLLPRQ

Test [7] deals with T4, PDE7B. The experiment in a line: 5FOA growth assay in fission yeast strain expressing PDE7B. Conditions: OD600 0.6; read-out: ED50 for 5FOA growth assays, PDE7B. Further details: targets used in the assays are full-length proteins (as opposed to simply the catalytic domain); expressed in transfected cells; host or cells: Schizosaccharomyces pombe. The format is cell-based. The protocol: PDE inhibition allows growth in 5FOA medium as measured by optical density after 48 hours incubation at 30° C. Compound BC12 and six structural analogs were tested for growth stimulation.
Cells were pregrown in EMM medium [MP Biomedicals (Solon, Ohio), 3% glucose, filter-sterilized to avoid carmelization, which would introduce variability into the optical density of the medium] containing from 0 mM to 2.5 mM cAMP (or either 0.5 mM or 1.0 mM cGMP). This was to repress expression of the fbp1-ura4 reporter prior to exposure of cells to 5FOA medium. Cells were grown at 30° C. to exponential phase (approximately 10^7 cells/ml). Cells were collected by centrifugation and resuspended in 5FOA medium, and 25 μl were transferred to 384-well microtiter dishes (untreated, with flat clear bottoms) that had been pre-filled with 25 μl 5FOA medium and pre-pinned with 100 nl of compounds (stock solutions were generally 10 mM). Starting cell concentrations ranged from 0.5×10^5 to 4×10^5 cells/ml depending on the screening strain. […] Other positive control dishes contained 5 mM cAMP in the 5FOA medium for PDEs that lack appropriate control compounds. Cultures were grown for 48 hours at 30° C., sealed in an airtight container with moist paper towels to prevent evaporation. Optical densities (OD600) of cultures were measured using a microplate reader. Bioinformatic analysis of the results to determine composite Z scores was performed as previously described (1, 3).
Target sequence in this assay (Q9NP56 whole entry, species assumed, the tested form may be a part): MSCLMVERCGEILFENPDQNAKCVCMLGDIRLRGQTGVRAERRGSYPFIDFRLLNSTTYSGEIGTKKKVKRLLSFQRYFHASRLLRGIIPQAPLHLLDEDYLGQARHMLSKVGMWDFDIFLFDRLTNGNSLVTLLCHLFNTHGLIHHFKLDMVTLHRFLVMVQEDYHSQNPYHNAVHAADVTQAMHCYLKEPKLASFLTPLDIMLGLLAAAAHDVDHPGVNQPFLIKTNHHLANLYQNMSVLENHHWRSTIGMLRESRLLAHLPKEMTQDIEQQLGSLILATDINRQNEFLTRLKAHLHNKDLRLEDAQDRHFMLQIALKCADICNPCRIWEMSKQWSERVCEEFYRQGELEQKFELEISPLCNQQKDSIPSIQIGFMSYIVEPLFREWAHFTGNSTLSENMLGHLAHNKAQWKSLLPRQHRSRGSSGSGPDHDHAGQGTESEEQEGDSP

The target of another test is PDE7A (Homo sapiens, UniProt Q13946). The experiment in a line: 5FOA growth assay in fission yeast strain expressing PDE7A. The test is classed as cell-based. Further details: targets used in the assays are full-length proteins (as opposed to simply the catalytic domain); expressed in transfected cells; host or cells: Schizosaccharomyces pombe, PDE gene integrated in place of cgs2. Conditions: OD600 0.6; read-out: ED50 for 5FOA growth assays, PDE7A. Summed up:
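Growth stimulation, reported as composite Z scores, was read as OD600 after 48 h at 30 °C in 5FOA medium. Before this, reporter (fbp1-ura4) yeast were grown at 30 °C in EMM with 0–2.5 mM cAMP or 0.5/1.0 mM cGMP to repress the reporter, then exposed to 100 nl pinned compound (stocks generally 10 mM).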

The structures appear in SMILES notation.

T3 sequence (P36599 whole entry): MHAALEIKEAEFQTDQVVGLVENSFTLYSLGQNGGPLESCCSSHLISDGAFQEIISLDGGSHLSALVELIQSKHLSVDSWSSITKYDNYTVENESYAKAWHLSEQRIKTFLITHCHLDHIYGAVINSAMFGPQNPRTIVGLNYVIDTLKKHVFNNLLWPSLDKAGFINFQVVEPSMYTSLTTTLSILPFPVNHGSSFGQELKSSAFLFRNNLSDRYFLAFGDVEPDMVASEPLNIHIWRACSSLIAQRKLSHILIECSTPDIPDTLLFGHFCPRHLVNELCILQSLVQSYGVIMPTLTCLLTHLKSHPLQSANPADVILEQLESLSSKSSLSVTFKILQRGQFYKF
Chain of PDE7A (Q13946 whole entry, the tested form may be a part): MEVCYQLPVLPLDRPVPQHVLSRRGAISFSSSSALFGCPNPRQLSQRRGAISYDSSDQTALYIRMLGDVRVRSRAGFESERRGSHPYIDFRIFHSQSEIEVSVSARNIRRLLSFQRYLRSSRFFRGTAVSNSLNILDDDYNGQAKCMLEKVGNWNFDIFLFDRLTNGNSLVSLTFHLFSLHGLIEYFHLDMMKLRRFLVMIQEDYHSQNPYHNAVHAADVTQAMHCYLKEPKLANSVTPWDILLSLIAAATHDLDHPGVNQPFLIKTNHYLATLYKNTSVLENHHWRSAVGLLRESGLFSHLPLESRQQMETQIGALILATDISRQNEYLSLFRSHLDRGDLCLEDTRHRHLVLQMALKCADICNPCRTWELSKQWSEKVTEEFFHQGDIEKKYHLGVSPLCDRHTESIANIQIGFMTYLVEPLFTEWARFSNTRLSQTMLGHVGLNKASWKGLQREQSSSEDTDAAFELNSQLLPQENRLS

In the case of `CCCCCC[C@@H]([C@@H](C)O)n1cnc2c(N)ncnc21` (racemic) [EHNA], the “inhibition of PDE2A judged by cAMP levels” value on PDE2A [1] is recorded as “partial inhibition”. In addition, the β-galactosidase activity on PDE2A [2] (5 μM EHNA) was determined as 473 ± 19; on PDE2A [2] (20 μM EHNA), 197 ± 51; at PDE2A [2] (200 μM EHNA), 45 ± 3.
In the case of `COc1ccc(C2CNC(=O)C2)cc1OC1CCCC1` (stereo not drawn) [Rolipram, reference compound], in [3], the “hit in high throughput screens (promotes 5FOA^R growth), in words” value is “only affected the PDE4A- and PDE4B-expressing strains”. Moreover, at PDE8A [4], the “cAMP levels in PDE8A strain” value is listed as “completely insensitive”. Also, the β-galactosidase activity on Cgs2 (50 μM Rolipram, specific activity per milligram of soluble protein, average ± SD) was 1807 ± 446; on Cgs2 (100 μM Rolipram), 1784 ± 429; on PDE8A [5] (50 μM Rolipram), 253 ± 46; at PDE8A [5] (100 μM Rolipram), 237 ± 67; in the test on Cgs2-2 (50 μM Rolipram) it was 19 ± 9; with Cgs2-2 (100 μM Rolipram), 20 ± 11. Moreover, the TNF in the test on U937 cells (3 HOURS) is 3497 pg/mL; in the test on U937 cells (20 HOURS), 9362 pg/mL. Moreover, the “TNF alpha (EtoH = 100.0)” value amounted to 86.2 in the test on U937 cells (3 HOURS) and 86.3 with U937 cells (20 HOURS). Moreover, the “TNF, % EtOH cntrl” value with U937 cells (3 HOURS) stood at 72.4%; in the test with U937 cells (20 HOURS), 68.4%. Also, at PDE7B [6], the IC50 was greater than 2 µM. Further, the EC50 at PDE7B [7] and at PDE7A was greater than 200 µM each time.

As usually defined, the IC50 is the midpoint of a concentration-inhibition curve.

Values taken from patent publication US20100227853A1, “INHIBITORS OF CYCLIC AMP PHOSPHODIESTERASES” (Trustees of Boston College, priority 2008, published 2010).
